Source: patent US6476008B1, “Use of diphosphonic acids or the physiologically acceptable salts or esters thereof in the preventive treatment of after-effects resulting from enlargement or replacement of the bladder” (Roche Diagnostics GmbH, priority 1997, dated 2002)

What was measured:
[1] = test system: female Sprague-Dawley rats augmented with excluded sigma; test: Prevention of osteopenia after bladder augmentation plasty, bone density by DEXA; type: in vivo, rat; settings: daily s.c. ibandronic acid up to 20 μg P/kg, 4 months, monthly DEXA
Description: Preventive effect of diphosphonates before the occurrence of osteopenia after augmentation plasty. Groups of 12 female Sprague-Dawley rats (6-8 week old, about […] body weight) were provided with stomach and ileum augmentation plasties and 12 animals were dummy-operated. At the same time, 24 animals were augmented with excluded sigma and divided at random into two groups, one group daily receiving a subcutaneous application of 0.9% NaCl (control) and the other group a daily subcutaneous application of ibandronic acid in the form of an aqueous solution in a dose up to 20 μg P/kg. The operative configuration of the augmentation plasties was after Lauvetz et al (J. Urol. 154: 899-902, 1995). The test period was 4 months, corresponding to about 4 years of human life (E. Grimm, Amer. J. Dig Dis. 7: 17-20, 1962).

[2] = test system: rats with chronic kidney insufficiency and augmentation using gastrointestinal segments; test: Chronic kidney insufficiency plus augmentation plasty, bone mass; type: in vivo, rat; settings: rats with CNI (5/6 nephrectomy) and augmentation plasty, ibandronate administration
Description: In order to increase the clinical relevance of the results, the test procedure of Example 2 was repeated on rats with chronic kidney insufficiency. This test arrangement is based on a frequent situation among human beings in which a bladder previously damaged by an existing disturbance in urine transport (reflux or obstruction) leads to kidney insufficiency as a secondary result. It is known that kidney insufficiency in itself results in a disturbance in bone mineralisation (renal osteopathy), so that the need for a bladder extension plasty using segments of intestine further increases the risk of disturbed mineralisation. Kidney insufficiency was induced by 5/6 nephrectomy (compare Example 2). The other test procedure was as in Example 1.

CCCCCN(C)CCC(O)(P(=O)(O)O)P(=O)(O)O [ibandronate, 1-hydroxy-3-(N-methyl-N-pentyl)aminopropylidene-1,1-diphosphonic acid]
reduction in bone mass (DEXA bone density, lumbar vertebrae) [1]: no reduction in bone mass | reduction in bone mass [2]: reduction in bone mass was prevented
